Measured values taken from paper PMC6269910 (Molecules, 2013).
“And” between values parts separate entries of the source, which are not always exact repeats. Equal values may be shown once.

How the values were obtained:
[1] = tested on: carrageenan-induced hind paw edema; assay: Carrageenan-induced hind paw edema model; format: in vivo, mice; details: for anti-inflammatory activity (in words): all doses, all measurement intervals
Experimental: Locally bred balb/c mice of both sexes (30-35 g) were purchased from the animal breeding laboratories of Inonu University ([…], Turkey). The animals were fed a standard pellet diet and water ad libitum in a temperature-controlled room. On the day before the treatments, food was withdrawn, but the animals were allowed free access of water. The allocation of animals to different groups was randomized, and the experiments were carried out under blind conditions. Mice used in the present study were cared for in accordance with the directory of the Inonu University Animal Care Unit, which applies the guidelines of the National Institutes of Health on laboratory animal welfare. Procedures involving animals and their care were conducted in conformity with international laws and policies and animal studies accepted by Inonu University Ethical Council (2011/A17). Test samples, suspended in a mixture of distilled water and 0.5% sodium carboxymethyl cellulose (CMC), were given orally to the animals. The control group animals received the same experimental handling as those of the test groups, except that the drug treatment was replaced with appropriate volumes of the dosing vehicle. […] For the preliminary activity screening, each test group was composed of four mice. […] Because of the daily changing circumstance, we used another control group for each experiment. For the determination of the effects on carrageenan-induced paw oedema, the modified method of Kasahara et al. was employed. One hour after the oral administration of either test sample or dosing vehicle, each mouse was injected with a freshly prepared (0.5 mg/25 μL) suspension of carrageenan (Sigma, St. Louis, MO, USA) in physiological saline (154 mM NaCl). The subplantar tissue of the right hind paw was the injection site for all mice. The contralateral paw (left hind paw) was injected with 25 μL saline solution as the internal control. […] The difference in footpad thickness between the right and left foot indicated the degree of inflammation for each mouse. The change in paw volume, either increase or decrease, was calculated and compared with the control group (dosing vehicle) and analyzed using statistical methods.

[2] = tested on: acetic acid-induced abdominal constriction; assay: Acetic acid-induced writhing (Koster) test; format: in vivo, mice; details: for Writhing test (% inh.) / Writhing test (Mean ± SEM): 100 mg/kg oral; for Writhing test (Mean ± SEM): writhings counted 10 min from 5 min after acetic acid
Experimental: Test samples, suspended in a mixture of distilled water and 0.5% sodium carboxymethyl cellulose (CMC), were given orally to the animals. The control group animals received the same experimental handling as those of the test groups, except that the drug treatment was replaced with appropriate volumes of the dosing vehicle. […] One hour after oral administration of test sample, each mouse was injected intraperitoneally with 3% (w/v) acetic acid solution (0.1 mL/10 g, bw). Starting 5 min after the acetic acid injection, the number of muscular contractions on mice were counted for a period of 10 min. A significant reduction in the number of writhings by any treatment as compared to the number of writhings in control animals was considered a positive analgesic response. The analgesic activity was expressed as a percentage change from writhing controls. ASA was used as a reference compound and administered at 200 mg/kg.

stomach = assay: Gastric-ulcerogenic effect (ulcer score); format: in vivo, mice; details: 200 mg/kg p.o.; animals with lesions/animals
[3] = tested on: lipid peroxidation in stomach; assay: Lipid peroxidation in stomach (TBARS); format: in vivo, mice; details: 100 mg/kg, 8 h after analgesic test
[4] = target: T1, HCV NS5B RNA dependent RNA polymerase (Hepatitis C virus genotype 1b, UniProt P26663); assay: NS5B inhibition assay (primer dependent elongation, poly rA-U12); format: biochemical; details: for inhibition at 100 µM: read-out: Anti-NS5B Activity (% Inh., 100 µM)
T1 construct: HCV NS5B RNA dependent RNA polymerase activity
Experimental: The compounds 1a–e and 2a–e were reconstituted in DMSO as 50 mM stocks, and serially diluted in DMSO to obtain working stocks. Wedelolactone, a known inhibitor of HCV NS5B activity, was employed as a reference compound. Preliminary screening was carried out at 100 μM to identify a wider range of compounds.
All synthesized compounds were evaluated for their effect on HCV NS5B RNA dependent RNA polymerase activity in primer dependent elongation assays as previously described. Activity of NS5B in the absence of the inhibitor but containing an equivalent amount of DMSO (control reaction) was set at 100% and that in the presence of the inhibitor was quantified relative to this control.

T1 sequence (P26663 2420-3010): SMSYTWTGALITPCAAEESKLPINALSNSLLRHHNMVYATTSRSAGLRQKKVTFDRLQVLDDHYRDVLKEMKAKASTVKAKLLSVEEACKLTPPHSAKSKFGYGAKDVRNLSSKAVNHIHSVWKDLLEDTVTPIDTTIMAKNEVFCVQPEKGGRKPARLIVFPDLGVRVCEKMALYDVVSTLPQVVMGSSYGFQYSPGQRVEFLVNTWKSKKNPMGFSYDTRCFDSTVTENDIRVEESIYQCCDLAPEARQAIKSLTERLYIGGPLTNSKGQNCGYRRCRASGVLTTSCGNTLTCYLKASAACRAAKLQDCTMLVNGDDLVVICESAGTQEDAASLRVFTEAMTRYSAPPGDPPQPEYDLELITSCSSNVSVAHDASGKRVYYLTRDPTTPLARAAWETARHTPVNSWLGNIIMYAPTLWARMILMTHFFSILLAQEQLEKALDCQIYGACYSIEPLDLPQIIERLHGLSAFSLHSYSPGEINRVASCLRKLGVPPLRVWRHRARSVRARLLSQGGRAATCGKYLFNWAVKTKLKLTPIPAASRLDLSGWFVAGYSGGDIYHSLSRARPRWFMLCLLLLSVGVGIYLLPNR

Cc1ccc(-c2cc(C(F)(F)F)nn2-c2ccc(S(=O)(=O)NC(=S)Nc3ccc([N+](=O)[O-])cc3)cc2)cc1 [Compound 1d]
Swelling in thickness ± SEM ([1]; 50 mg/kg per os, 90 min): 70.0 ± 4.7 × 10^−2 mm
percent inhibitory activity ([1]; 50 mg/kg per os, 90 min): 2.7%
Swelling in thickness ± SEM ([1]; 50 mg/kg per os, 180 min): 77.0 ± 2.0 × 10^−2 mm
percent inhibitory activity ([1]; 50 mg/kg per os, 180 min): 16.3%
Swelling in thickness ± SEM ([1]; 50 mg/kg per os, 270 min): 112.0 ± 7.3 × 10^−2 mm
percent inhibitory activity ([1]; 50 mg/kg per os, 270 min): 7.4%
Swelling in thickness ± SEM ([1]; 50 mg/kg per os, 360 min): 125.0 ± 5.9 × 10^−2 mm
percent inhibitory activity ([1]; 50 mg/kg per os, 360 min): 3.1%
Swelling in thickness ± SEM ([1]; 100 mg/kg per os, 90 min): 95.9 ± 10.2 × 10^−2 mm
Swelling in thickness ± SEM ([1]; 100 mg/kg per os, 270 min): 110.7 ± 11.0 × 10^−2 mm
percent inhibitory activity ([1]; 100 mg/kg per os, 270 min): 8.5%
Swelling in thickness ± SEM ([1]; 100 mg/kg per os, 360 min): 88.7 ± 9.3 × 10^−2 mm
percent inhibitory activity ([1]; 100 mg/kg per os, 360 min): 31.2%
Swelling in thickness ± SEM ([1]; 200 mg/kg per os, 90 min): 45.9 ± 10.9 × 10^−2 mm
percent inhibitory activity ([1]; 200 mg/kg per os, 90 min): 36.2%
Swelling in thickness ± SEM ([1]; 200 mg/kg per os, 180 min): 65.3 ± 6.4 × 10^−2 mm
percent inhibitory activity ([1]; 200 mg/kg per os, 180 min): 29.0%
Swelling in thickness ± SEM ([1]; 200 mg/kg per os, 270 min): 98.2 ± 9.8 × 10^−2 mm
percent inhibitory activity ([1]; 200 mg/kg per os, 270 min): 19.0%
Swelling in thickness ± SEM ([1]; 200 mg/kg per os, 360 min): 91.0 ± 3.3 × 10^−2 mm
percent inhibitory activity ([1]; 200 mg/kg per os, 360 min): 29.5%
anti-inflammatory activity (in words) [1]: moderate-to-good
Writhing test (% inh.) [2]: 19.5%
Writhing test (Mean ± SEM) [2]: 14.0 ± 3.0
Ulcer score (stomach): 0/5
Lipid peroxidation [3]: 429.2 ± 23.2 nmol TBARS/g wet weight
IC50 ([4]; dose-response, 8–12 concentrations): 46 µM and 45.5 µM
inhibition at 100 µM [4]: 68%
melting point: 245 to 248 °C

Cc1ccc(-c2cc(C(F)(F)F)nn2-c2ccc(S(=O)(=O)NC(=S)Nc3ccc(C(F)(F)F)cc3)cc2)cc1 [Compound 1e]
Swelling in thickness ± SEM ([1]; 50 mg/kg per os, 90 min): 47.0 ± 3.3 × 10^−2 mm
percent inhibitory activity ([1]; 50 mg/kg per os, 90 min): 34.7%
Swelling in thickness ± SEM ([1]; 50 mg/kg per os, 180 min): 57.0 ± 6.2 × 10^−2 mm
percent inhibitory activity ([1]; 50 mg/kg per os, 180 min): 38.0%
Swelling in thickness ± SEM ([1]; 50 mg/kg per os, 270 min): 92.0 ± 1.2 × 10^−2 mm
percent inhibitory activity ([1]; 50 mg/kg per os, 270 min): 23.9%
Swelling in thickness ± SEM ([1]; 50 mg/kg per os, 360 min): 106.0 ± 6.7 × 10^−2 mm
percent inhibitory activity ([1]; 50 mg/kg per os, 360 min): 17.8%
Swelling in thickness ± SEM ([1]; 100 mg/kg per os, 90 min): 88.4 ± 2.6 × 10^−2 mm
Swelling in thickness ± SEM ([1]; 100 mg/kg per os, 180 min): 83.9 ± 3.4 × 10^−2 mm
percent inhibitory activity ([1]; 100 mg/kg per os, 180 min): 8.8%
Swelling in thickness ± SEM ([1]; 100 mg/kg per os, 270 min): 88.7 ± 11.4 × 10^−2 mm
percent inhibitory activity ([1]; 100 mg/kg per os, 270 min): 26.7%
Swelling in thickness ± SEM ([1]; 100 mg/kg per os, 360 min): 83.4 ± 9.6 × 10^−2 mm
percent inhibitory activity ([1]; 100 mg/kg per os, 360 min): 35.4%
Swelling in thickness ± SEM ([1]; 200 mg/kg per os, 90 min): 76.9 ± 5.7 × 10^−2 mm
Swelling in thickness ± SEM ([1]; 200 mg/kg per os, 180 min): 83.0 ± 6.8 × 10^−2 mm
Swelling in thickness ± SEM ([1]; 200 mg/kg per os, 270 min): 110.5 ± 7.5 × 10^−2 mm
Swelling in thickness ± SEM ([1]; 200 mg/kg per os, 360 min): 103.7 ± 5.2 × 10^−2 mm
percent inhibitory activity ([1]; 200 mg/kg per os, 360 min): 19.6%
anti-inflammatory activity (in words) [1]: moderate-to-good
Writhing test (% inh.) [2]: −37.9%
Writhing test (Mean ± SEM) [2]: 24.0 ± 3.0
Ulcer score (stomach): 0/5
Lipid peroxidation [3]: 406.9 ± 27.0 nmol TBARS/g wet weight
inhibition at 100 µM [4]: 14.6%
melting point: 228 to 231 °C

Cc1ccc(-c2cc(C(F)(F)F)nn2-c2ccc(S(=O)(=O)/N=C3\SCC(=O)N3Cc3ccccc3)cc2)cc1 [Compound 2c, N-(3-Benzyl-4-oxo-1,3-thiazolidin-2-yldene)-4-[5-(4-methylphenyl)-3-(trifluoromethyl)-1H-pyrazol-1-yl]benzenesulfonamide]
Swelling in thickness ± SEM ([1]; 50 mg/kg per os, 90 min): 65.0 ± 6.1 × 10^−2 mm
percent inhibitory activity ([1]; 50 mg/kg per os, 90 min): 9.7%
Swelling in thickness ± SEM ([1]; 50 mg/kg per os, 180 min): 74.0 ± 8.8 × 10^−2 mm
percent inhibitory activity ([1]; 50 mg/kg per os, 180 min): 19.5%
Swelling in thickness ± SEM ([1]; 50 mg/kg per os, 270 min): 95.0 ± 10.0 × 10^−2 mm
percent inhibitory activity ([1]; 50 mg/kg per os, 270 min): 21.4%
Swelling in thickness ± SEM ([1]; 50 mg/kg per os, 360 min): 110.0 ± 7.1 × 10^−2 mm
percent inhibitory activity ([1]; 50 mg/kg per os, 360 min): 14.7%
Swelling in thickness ± SEM ([1]; 100 mg/kg per os, 90 min): 83.4 ± 8.7 × 10^−2 mm
Swelling in thickness ± SEM ([1]; 100 mg/kg per os, 180 min): 90.6 ± 11.7 × 10^−2 mm
Swelling in thickness ± SEM ([1]; 100 mg/kg per os, 270 min): 91.7 ± 16.7 × 10^−2 mm
percent inhibitory activity ([1]; 100 mg/kg per os, 270 min): 24.2%
Swelling in thickness ± SEM ([1]; 100 mg/kg per os, 360 min): 118.2 ± 7.1 × 10^−2 mm
percent inhibitory activity ([1]; 100 mg/kg per os, 360 min): 8.3%
Swelling in thickness ± SEM ([1]; 200 mg/kg per os, 90 min): 69.5 ± 8.3 × 10^−2 mm
percent inhibitory activity ([1]; 200 mg/kg per os, 90 min): 3.4%
Swelling in thickness ± SEM ([1]; 200 mg/kg per os, 180 min): 75.6 ± 8.3 × 10^−2 mm
percent inhibitory activity ([1]; 200 mg/kg per os, 180 min): 17.8%
Swelling in thickness ± SEM ([1]; 200 mg/kg per os, 270 min): 133.2 ± 14.3 × 10^−2 mm
Swelling in thickness ± SEM ([1]; 200 mg/kg per os, 360 min): 120.1 ± 5.3 × 10^−2 mm
percent inhibitory activity ([1]; 200 mg/kg per os, 360 min): 6.9%
analgesic activity (in words) ([2]; 100 mg/kg): not statistically significant
Writhing test (% inh.) [2]: 32.2%
Writhing test (Mean ± SEM) [2]: 11.8 ± 1.4
Ulcer score (stomach): 0/5
Lipid peroxidation [3]: 330.4 ± 9.7 nmol TBARS/g wet weight
inhibition at 100 µM [4]: 19.4%
melting point: 250 °C
